Data reported in patent US7860552B2, “CNS assay for prediction of therapeutic efficacy for neuropathic pain and other functional illnesses” (The McLean Hospital Corporation, priority 2004, dated 2010).

How the values were obtained:
neuropathic pain = details: known efficacy in human neuropathic pain; cited from earlier work
rats = assay: fMRI of CNS activation in rats following heat stimulus; format: in vivo, rat; details: compared to placebo group, FIG. 6, FIG. 7
Experimental: The methods of the invention may employ non-human mammals, e.g., rats, as the subjects, in which experimental therapeutic interventions are evaluated. […] The left panels show serial coronal slices through the brain. The overall level of activation was decreased in the gabapentin group compared to the placebo group. The right panels show differences in activation in specific circuitry known to be involved in pain processing that was affected in somatosensory regions (SI), emotional regions (nucleus accumbens—NAc), autonomic regions (hypothalamus), and endogenous analgesic regions (periaqueductal gray).

healthy subjects = assay: fMRI of CNS activation in healthy subjects after a thermal stimulus (>44° C.); format: in vivo, human; details: compared with the placebo response, FIG. 2
Experimental: The methods of the invention generally involve the administration of a therapeutic intervention, e.g., a compound, to a subject, e.g., a mammal such as a human, non-human primate, or a rodent (e.g., a rat or mouse). In one embodiment, an acute painful stimulus, e.g., a thermal stimulus, is then administered to the subject. An appropriate time delay may be used in order to achieve appropriate therapeutic effect in the blood and/or CNS prior to administration of the stimulus. Levels of activation of the central nervous system (CNS) of the subject are then measured, typically by a neuroimaging technique such as fMRI. When a therapeutic intervention is being evaluated for efficacy against the functional illness, the levels of activity are examined to determine whether the intervention alters activity in the CNS (FIG. 1). The levels of activity may be determined with reference to one or more specific regions of the CNS, such as those associated, either directly or indirectly with the functional illness, or a general level of activity for the entire CNS, or portion thereof, may be determined without reference to specific anatomical or functional regions. Any alteration in the level of activity may be determined relative to a control, such as levels of activity in a subject treated with placebo or a therapeutic intervention with known efficacy against the functional illness. The method is advantageous in that the subject need not be suffering from the functional illness in order to determine the efficacy of a therapeutic intervention for the illness. […]
The present invention typically employs an imaging technique for measuring the level of activation of the CNS, e.g., by determining blood flow in the CNS. […] In addition, the imaging methods may also be employed to determine a general level of activation for the CNS, e.g., measured as the total number of activated voxels., without regard to the specific regions involved. […]

Row | SMILES | Efficacy in neuropathic pain (neuropathic pain) | Overall level of CNS activation (fMRI) (rats) | fMRI signal change (CNS activation) following the heat stimulus (healthy subjects)
1 | O=C1CN=C(c2ccccc2Cl)c2cc([N+](=O)[O-])ccc2N1 [clonazepam] | no efficacy |  | 
2 | NCC1(CC(=O)O)CCCCC1 [gabapentin] | efficacy | decreased | decreasing signal change
3 | CN(C)CCCN1c2ccccc2CCc2ccccc21 [imipramine] | efficacy |  | decreasing signal change
4 | O=C(c1ccccc1)c1ccc2n1CCC2C(=O)O (stereo not shown) [ketorolac] | no efficacy |  | 
5 | CS(=O)(=O)c1ccc(C2=C(c3ccccc3)C(=O)OC2)cc1 [rofecoxib] | no efficacy |  | 
6 | CC1(C)O[C@@H]2[C@@H](CO[C@@]3(COS(N)(=O)=O)OC(C)(C)O[C@@H]23)O1 [topiramate] | efficacy |  | decreasing signal change
